Reference: US20260325533A1, “CDK INHIBITOR COMPOUNDS” (ALEKSIA THERAPEUTICS, INC., priority 2023, published 2026)
Where two headings read alike, the source gives them in different places.

Key:
Assay type in all cases: biochemical
CDK1/CCNB1 = CDK1/CCNB1 (Homo sapiens, UniProt P06493); experiment: CDK1 homogeneous time-resolved fluorescence (HTRF) kinase assay; details: CDK1/CCNB
Outline: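 CDK1/CCNB1 0.5 nM + cpd, 20 min 23 °C; add 1 mM ATP, 50 nM ULight-4E-BP1 peptide, 60 min 23 °C; stop 10 mM EDTA; 2 nM Eu-Ab, 60 min; HTRF 665 nm. 11-pt half-log, top 10 μM typical; IC50.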

CDK6/CCND1 = CDK6/CCND1 (Homo sapiens, UniProt Q00534); experiment: CDK6 homogeneous time-resolved fluorescence (HTRF) kinase assay; details: CDK6/CCND, 1 mM ATP
Outline: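 Recombinant CDK6/CCND1 (1 nM final) was preincubated with compound for 20 min at 23 °C in HEPES buffer with MgCl2, EGTA, DTT and Tween 20. Kinase reaction then ran 60 min at 23 °C with 1 mM ATP and 50 nM ULight-4E-BP1 (Thr37/46) peptide, and was stopped with EDTA.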

CDK4/CCND3 = CDK4/CCND3 (Homo sapiens, UniProt P11802); experiment: CDK4 homogeneous time-resolved fluorescence (HTRF) kinase assay; details: CDK4/CCND
Outline: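 HTRF kinase assay, CDK4/CCND3 1.5 nM, ATP 1 mM, ULight-4E-BP1 peptide 50 nM, 23 °C, 60 min reaction after 20 min preincubation. Eu-anti-pThr37/46 antibody detection. 11-pt half-log curves from 10 μM → IC50.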

CDK2/CCNE1 = CDK2/CCNE1 (Homo sapiens, UniProt P24941); experiment: CDK2 homogeneous time-resolved fluorescence (HTRF) kinase assay; details: CDK2/CCNE
Outline: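 IC50 derived from 11-point, half-log dilutions (usually top 10 μM) of compound, 1% DMSO. Kinase (3 nM CDK2/CCNE1) was preincubated with compound 20 min, then phosphorylated 50 nM ULight-4E-BP1 peptide at 1 mM ATP for 60 min, 23 °C. Europium-antibody TR-FRET read after EDTA stop.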

[1] = >250 nM, read-out: CDK1/CCNB IC50 >250 nM
[2] = >250 nM, read-out: CDK6/CCND IC50, >250 nM
[3] = >250 nM, read-out: CDK4/CCND IC50, >250 nM
[4] = 25-250 nM, read-out: CDK2/CCNE IC50, 25-250 nM
[5] = <25 nM, read-out: CDK2/CCNE IC50, <25 nM
[6] = 25-250 nM, read-out: CDK6/CCND IC50, 25-250 nM
[7] = 25-250 nM, read-out: CDK4/CCND IC50, 25-250 nM

Sequence of CDK1/CCNB1 (P06493 whole entry): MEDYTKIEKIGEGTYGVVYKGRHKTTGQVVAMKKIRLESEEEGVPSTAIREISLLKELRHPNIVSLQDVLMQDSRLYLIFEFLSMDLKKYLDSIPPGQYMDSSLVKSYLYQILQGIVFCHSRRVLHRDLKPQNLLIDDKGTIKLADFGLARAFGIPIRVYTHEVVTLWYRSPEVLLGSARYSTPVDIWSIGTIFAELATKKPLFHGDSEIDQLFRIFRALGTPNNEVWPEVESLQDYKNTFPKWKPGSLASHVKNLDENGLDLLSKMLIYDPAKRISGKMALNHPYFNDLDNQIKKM
Sequence of CDK1/CCNB1 (P14635 whole entry partner): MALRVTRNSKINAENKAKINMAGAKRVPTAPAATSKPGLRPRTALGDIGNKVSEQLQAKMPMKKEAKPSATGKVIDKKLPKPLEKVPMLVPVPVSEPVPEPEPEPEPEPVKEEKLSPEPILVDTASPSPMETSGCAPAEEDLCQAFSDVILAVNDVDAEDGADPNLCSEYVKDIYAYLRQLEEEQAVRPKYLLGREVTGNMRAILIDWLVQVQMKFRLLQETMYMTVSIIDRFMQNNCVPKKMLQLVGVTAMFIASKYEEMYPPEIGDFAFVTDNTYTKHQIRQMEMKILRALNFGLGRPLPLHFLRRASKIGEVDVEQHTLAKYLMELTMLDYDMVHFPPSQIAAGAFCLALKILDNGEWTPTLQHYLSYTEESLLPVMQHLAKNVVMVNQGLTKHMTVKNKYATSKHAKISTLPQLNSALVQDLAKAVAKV
Sequence of CDK4/CCND3 (P11802 whole entry): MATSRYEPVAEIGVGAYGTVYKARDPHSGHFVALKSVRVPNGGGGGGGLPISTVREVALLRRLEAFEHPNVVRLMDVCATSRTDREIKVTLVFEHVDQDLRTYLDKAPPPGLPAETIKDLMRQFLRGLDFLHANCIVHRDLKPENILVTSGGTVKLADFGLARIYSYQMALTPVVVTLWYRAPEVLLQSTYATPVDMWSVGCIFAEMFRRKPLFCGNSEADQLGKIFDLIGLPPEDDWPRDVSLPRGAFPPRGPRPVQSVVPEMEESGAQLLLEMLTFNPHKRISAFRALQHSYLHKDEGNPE
Sequence of CDK4/CCND3 (P30281 whole entry partner): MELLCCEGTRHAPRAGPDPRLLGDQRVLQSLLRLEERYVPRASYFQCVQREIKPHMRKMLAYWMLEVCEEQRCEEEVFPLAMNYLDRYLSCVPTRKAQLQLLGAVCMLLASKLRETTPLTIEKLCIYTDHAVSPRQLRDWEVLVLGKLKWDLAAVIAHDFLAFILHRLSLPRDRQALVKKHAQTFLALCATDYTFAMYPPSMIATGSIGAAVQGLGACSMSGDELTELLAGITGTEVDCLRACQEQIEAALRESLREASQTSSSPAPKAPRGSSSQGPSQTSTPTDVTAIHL
Sequence of CDK6/CCND1 (Q00534 whole entry): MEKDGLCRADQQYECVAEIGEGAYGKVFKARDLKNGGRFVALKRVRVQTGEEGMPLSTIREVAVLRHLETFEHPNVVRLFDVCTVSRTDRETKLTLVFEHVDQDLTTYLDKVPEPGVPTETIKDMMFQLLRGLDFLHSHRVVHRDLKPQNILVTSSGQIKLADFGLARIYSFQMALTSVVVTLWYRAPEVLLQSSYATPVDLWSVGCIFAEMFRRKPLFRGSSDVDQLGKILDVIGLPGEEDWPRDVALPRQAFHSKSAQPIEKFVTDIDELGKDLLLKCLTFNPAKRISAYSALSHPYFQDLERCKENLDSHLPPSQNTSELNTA
Sequence of CDK6/CCND1 (P24385 whole entry partner): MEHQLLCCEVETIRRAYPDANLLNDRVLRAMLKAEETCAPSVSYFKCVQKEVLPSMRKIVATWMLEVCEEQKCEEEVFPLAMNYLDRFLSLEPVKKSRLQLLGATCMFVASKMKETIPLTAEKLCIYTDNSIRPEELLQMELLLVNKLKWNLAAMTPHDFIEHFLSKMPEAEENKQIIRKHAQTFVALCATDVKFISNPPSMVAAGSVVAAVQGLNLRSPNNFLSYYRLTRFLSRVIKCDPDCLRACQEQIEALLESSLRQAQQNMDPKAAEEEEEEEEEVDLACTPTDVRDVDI

Structure (SMILES) | IC50 (CDK1/CCNB1; [1]) [nM] | IC50 (CDK6/CCND1; [2]) [nM] | IC50 (CDK4/CCND3; [3]) [nM] | IC50 (CDK2/CCNE1; [4]) [nM] | IC50 (CDK2/CCNE1; [5]) [nM] | IC50 (CDK1/CCNB1; 25-250 nM, read-out: CDK1/CCNB IC50, 25-250 nM) [nM] | IC50 (CDK6/CCND1; [6]) [nM] | IC50 (CDK4/CCND3; [7]) [nM] | IC50 (CDK2/CCNE1; >250 nM, read-out: CDK2/CCNE IC50, >250 nM) [nM]
COc1nc(S(C)(=O)=O)ccc1Nc1cc2c(-c3ccc4c(cnn4CC(C)(C)O)c3C)nccc2cn1 [Ex 766, 1-(5-(7-((2-methoxy-6-(methylsulfonyl)pyridin-3-yl)amino)-2,6-naphthyridin-1-yl)-4-methyl-1H-indazol-1-yl)-2-methylpropan-2-ol] | > 250 | > 250 | > 250 | 25 to 250 | – | – | – | – | –
Cc1c(-c2nccc3cnc(Nc4ccc(NS(=O)(=O)c5ccccn5)cc4)cc23)ccc2c1cnn2CC(C)(C)O [Ex 768, N-(4-((5-(1-(2-hydroxy-2-methylpropyl)-4-methyl-1H-indazol-5-yl)-2,6-naphthyridin-3-yl)amino)phenyl)pyridine-2-sulfonamide] | – | – | – | – | < 25 | 25 to 250 | 25 to 250 | 25 to 250 | –
Cc1c(-c2nccc3cnc(Nc4ccc(NS(=O)(=O)c5ccc(Cl)cn5)cc4)cc23)ccc2c1cnn2CC(C)(C)O [Ex 777, 5-chloro-N-(4-((5-(1-(2-hydroxy-2-methylpropyl)-4-methyl-1H-indazol-5-yl)-2,6-naphthyridin-3-yl)amino)phenyl)pyridine-2-sulfonamide] | > 250 | > 250 | > 250 | – | < 25 | – | – | – | –
COc1ccc(S(=O)(=O)Nc2ccc(Nc3cc4c(-c5ccc6c(cnn6CC(C)(C)O)c5C)nccc4cn3)cc2)cn1 [Ex 779, N-(4-((5-(1-(2-hydroxy-2-methylpropyl)-4-methyl-1H-indazol-5-yl)-2,6-naphthyridin-3-yl)amino)phenyl)-6-methoxypyridine-3-sulfonamide] | > 250 | > 250 | > 250 | – | < 25 | – | – | – | –
Cc1c(-c2nccc3cnc(Nc4ccc(NS(=O)(=O)c5cnccn5)cc4)cc23)ccc2c1cnn2CC(C)(C)O [Ex 781, N-(4-((5-(1-(2-hydroxy-2-methylpropyl)-4-methyl-1H-indazol-5-yl)-2,6-naphthyridin-3-yl)amino)phenyl)pyrazine-2-sulfonamide] | > 250 | – | – | – | < 25 | – | 25 to 250 | 25 to 250 | –
Cc1nc(-c2ccc(S(=O)(=O)Nc3ccc(Nc4cc5c(-c6ccc7c(cnn7CC(C)(C)O)c6C)nccc5cn4)cc3)s2)cs1 [Ex 782, N-(4-((5-(1-(2-hydroxy-2-methylpropyl)-4-methyl-1H-indazol-5-yl)-2,6-naphthyridin-3-yl)amino)phenyl)-5-(2-methylthiazol-4-yl)thiophene-2-sulfonamide] | > 250 | > 250 | > 250 | – | – | – | – | – | > 250
Cc1ncc(S(=O)(=O)Nc2ccc(Nc3cc4c(-c5ccc6c(cnn6CC(C)(C)O)c5C)nccc4cn3)cc2)s1 [Ex 783, N-(4-((5-(1-(2-hydroxy-2-methylpropyl)-4-methyl-1H-indazol-5-yl)-2,6-naphthyridin-3-yl)amino)phenyl)-2-methylthiazole-5-sulfonamide] | > 250 | > 250 | > 250 | – | < 25 | – | – | – | –
Cc1c(-c2nccc3cnc(Nc4ccc(NS(=O)(=O)c5ccccc5)cc4)cc23)ccc2c1cnn2CC(C)(C)O [Ex 787, N-(4-((5-(1-(2-hydroxy-2-methylpropyl)-4-methyl-1H-indazol-5-yl)-2,6-naphthyridin-3-yl)amino)phenyl)benzenesulfonamide] | > 250 | > 250 | > 250 | – | < 25 | – | – | – | –

Second part, the compound after the results:

IC50 (CDK1/CCNB1; [1]) [nM] | IC50 (CDK6/CCND1; [2]) [nM] | IC50 (CDK4/CCND3; [3]) [nM] | IC50 (CDK2/CCNE1; [4]) [nM] | IC50 (CDK2/CCNE1; [5]) [nM] | IC50 (CDK1/CCNB1; 25-250 nM, read-out: CDK1/CCNB IC50, 25-250 nM) [nM] | IC50 (CDK6/CCND1; [6]) [nM] | IC50 (CDK4/CCND3; [7]) [nM] | IC50 (CDK2/CCNE1; >250 nM, read-out: CDK2/CCNE IC50, >250 nM) [nM] | Structure (SMILES)
> 250 | > 250 | > 250 | – | < 25 | – | – | – | – | Cc1c(-c2nccc3cnc(Nc4ccc(NS(=O)(=O)c5ccc(N6CCNCC6)cc5)cc4)cc23)ccc2c1cnn2CC(C)(C)O [Ex 767, N-(4-((5-(1-(2-hydroxy-2-methylpropyl)-4-methyl-1H-indazol-5-yl)-2,6-naphthyridin-3-yl)amino)phenyl)-4-(piperazin-1-yl)benzenesulfonamide]
> 250 | > 250 | > 250 | – | < 25 | – | – | – | – | Cc1c(-c2nccc3cnc(Nc4ccc(S(=O)(=O)Nc5nccc(N6CCOCC6)n5)cc4)cc23)ccc2c1cnn2CC(O)(C(F)(F)F)C(F)(F)F [Ex 769, 4-((5-(4-methyl-1-(3,3,3-trifluoro-2-hydroxy-2-(trifluoromethyl)propyl)-1H-indazol-5-yl)-2,6-naphthyridin-3-yl)amino)-N-(4-morpholinopyrimidin-2-yl)benzenesulfonamide]
> 250 | – | – | – | < 25 | – | 25 to 250 | 25 to 250 | – | Cc1c(-c2nccc3cnc(Nc4ccc(S(=O)(=O)Nc5cc(N6CCOCC6)ccn5)cc4)cc23)ccc2c1cnn2CC(C)(C)O [Ex 772, 4-((5-(1-(2-hydroxy-2-methylpropyl)-4-methyl-1H-indazol-5-yl)-2,6-naphthyridin-3-yl)amino)-N-(4-morpholinopyridin-2-yl)benzenesulfonamide]
> 250 | – | – | – | < 25 | – | 25 to 250 | 25 to 250 | – | Cc1c(-c2nccc3cnc(Nc4ccc(S(=O)(=O)Nc5ccc(N6CCOCC6)cn5)cc4)cc23)ccc2c1cnn2CC(C)(C)O [Ex 773, 4-((5-(1-(2-hydroxy-2-methylpropyl)-4-methyl-1H-indazol-5-yl)-2,6-naphthyridin-3-yl)amino)-N-(5-morpholinopyridin-2-yl)benzenesulfonamide]
> 250 | – | – | – | < 25 | – | 25 to 250 | 25 to 250 | – | Cc1c(-c2nccc3cnc(Nc4ccc(S(=O)(=O)Nc5cc(C(C)(C)O)ccn5)cc4)cc23)ccc2c1cnn2CC(C)(C)O [Ex 774, 4-((5-(1-(2-hydroxy-2-methylpropyl)-4-methyl-1H-indazol-5-yl)-2,6-naphthyridin-3-yl)amino)-N-(4-(2-hydroxypropan-2-yl)pyridin-2-yl)benzenesulfonamide]
> 250 | > 250 | > 250 | – | < 25 | – | – | – | – | Cc1c(-c2nccc3cnc(Nc4ccc(S(=O)(=O)Nc5cc(C(F)(F)F)cc(C(F)(F)F)n5)cc4)cc23)ccc2c1cnn2CC(C)(C)O [Ex 775, N-(4,6-bis(trifluoromethyl)pyridin-2-yl)-4-((5-(1-(2-hydroxy-2-methylpropyl)-4-methyl-1H-indazol-5-yl)-2,6-naphthyridin-3-yl)amino)benzenesulfonamide]
> 250 | > 250 | > 250 | 25 to 250 | – | – | – | – | – | Cc1c(-c2nccc3cnc(Nc4ccc(NS(=O)(=O)c5ccc(C(F)(F)F)nc5)cc4)cc23)ccc2c1cnn2CC(C)(C)O [Ex 778, N-(4-((5-(1-(2-hydroxy-2-methylpropyl)-4-methyl-1H-indazol-5-yl)-2,6-naphthyridin-3-yl)amino)phenyl)-6-(trifluoromethyl)pyridine-3-sulfonamide]
> 250 | > 250 | > 250 | 25 to 250 | – | – | – | – | – | Cc1c(-c2nccc3cnc(Nc4ccc(NS(=O)(=O)c5ccc(N6CCOCC6)nc5)cc4)cc23)ccc2c1cnn2CC(C)(C)O [Ex 780, N-(4-((5-(1-(2-hydroxy-2-methylpropyl)-4-methyl-1H-indazol-5-yl)-2,6-naphthyridin-3-yl)amino)phenyl)-6-morpholinopyridine-3-sulfonamide]
> 250 | > 250 | > 250 | – | < 25 | – | – | – | – | Cc1c(-c2nccc3cnc(Nc4ccc(NS(=O)(=O)c5ccc(N6CCN(C)CC6)cc5)cc4)cc23)ccc2c1cnn2CC(C)(C)O [Ex 785, N-(4-((5-(1-(2-hydroxy-2-methylpropyl)-4-methyl-1H-indazol-5-yl)-2,6-naphthyridin-3-yl)amino)phenyl)-4-(4-methylpiperazin-1-yl)benzenesulfonamide]
> 250 | > 250 | > 250 | 25 to 250 | – | – | – | – | – | Cc1c(-c2nccc3cnc(Nc4ccc(NS(=O)(=O)c5ccc(N6CCOCC6)cc5)cc4)cc23)ccc2c1cnn2CC(C)(C)O [Ex 786, N-(4-((5-(1-(2-hydroxy-2-methylpropyl)-4-methyl-1H-indazol-5-yl)-2,6-naphthyridin-3-yl)amino)phenyl)-4-morpholinobenzenesulfonamide]
